In patent publication US12296017B2, “Bioorthogonal compositions” (TAMBO, INC., priority 2017, dated 2025):
≈ marks a conversion by molar mass, not a printed value. Where “and” joins values, the source holds several entries; their conditions need not be identical. Identical values can stand only once.

Legend:
bacteria = experiment: Microcalorimetry activity of Vanco-Bis-TCO-Glycine; format: cell-based; details: tested up to 64 μg/ml (32 μM), without activating gel
MRSA bacteria = experiment: In vitro calorimetry (MRSA) in presence and absence of TAG
[1] = test system: methicillin-resistant Staphylococcus Aureus SP231; experiment: Rat knee joint MRSA infection study; format: in vivo; details: rats; TAG (right knee) vs unmodified alginate control gel (left knee); prodrug via tail vein; 24 h; p<0.05
Method: Prodrug, TCO-Dapto was delivered systemically via tail vein. Mean±SEM of n=3, unpaired two-tailed Welch's t-test, *p<0.05.
Female Sprague-Dawley rats of age 6-8 weeks were approved for this study by the Institution of Animal Care and Use Committee (IACUC). Neutropenia was induced with cyclophosphamide intraperitoneally, 4 days (150 mg/kg) and 1 day (100 mg/kg) prior to gel injections. Animals received intra-articular injections of […] of 2.5% w/v of Cy5-modified alginate TAG (right knee) or unmodified alginate-Cy5 gel control (left knee) mixed with […] of 10^8 CFU/mL of methicillin-resistant Staphylococcus Aureus SP231 bacteria. After 2 h, animals received 61 μM of transcyclooctene-modified daptomycin-glycine (TCO-Dapto) via tail vein IV at standard dosing volume. After 24 h of gel injections, knee joints were harvested, homogenized and diluted in Dubelco's Phosphate buffered saline (D-PBS). Homogenized mixture was plated onto trypticase soy agar plates containing 5% sheep's blood duplicate. Bacterial colonies were enumerated following 20 h of incubation and bacterial load as LOG CFU/g of knee joint was determined. Statistical analysis was performed with Welch's two-tailed t-test and * denotes p<0.05. Error bars indicate standard error over means of n=3.

[2] = Aqueous solubility of Example 13B under different buffer conditions
[3] = Phosphate Buffer pH 6.5, final pH 6.1
[4] = Phosphate Buffer pH 7.5, final pH 5.4

Structure (SMILES) | activity against bacteria as measured by microcalorimetry (bacteria) | MHIC in the absence of TAG relative to presence of TAG (MRSA bacteria) [×] | bacterial loading of harvested knee joint [1] | Solubility, Mean ([2]; Buffer: Water, final pH 3.4) [mg/mL] | Solubility, Value ([2]; Buffer: Water, final pH 3.4) | Solubility, Mean [2, 3] [mg/mL] | Solubility, Value [2, 3] | Solubility, Mean [2, 4] [mg/mL] | Solubility, Value [2, 4]
CC(C)CC(C(=O)N[C@H]1C(=O)N[C@@H](CC(N)=O)C(=O)N[C@H]2C(=O)N[C@H]3C(=O)N[C@H](C(=O)N[C@H](C(=O)O)c4cc(O)cc(O)c4-c4cc3ccc4O)[C@H](O)c3ccc(c(Cl)c3)Oc3cc2cc(c3O[C@@H]2O[C@H](CO)[C@@H](O)[C@H](O)[C@H]2O[C@H]2C[C@](C)(NC(=O)O[C@@H]3/C=C/CC[C@](C)(C(=O)NCC(=O)O)CC3)[C@H](O)[C@H](C)O2)Oc2ccc(cc2Cl)[C@H]1O)N(C)C(=O)O[C@@H]1/C=C/CC[C@](C)(C(=O)NCC(=O)O)CC1 (stereo partly drawn) [Example 13C, Vanco-Bis-TCO-glycine Conjugate] | no activity | 8 |  |  |  |  |  |  | 
CCCCCCCCCC(=O)NC(Cc1c[nH]c2ccccc12)C(=O)NC(CC(N)=O)C(=O)NC(CC(=O)O)C(=O)NC1C(=O)NCC(=O)NC(CCCNC(=O)OC2C=CCCC(C)(C(=O)NCC(=O)O)CC2)C(=O)NC(CC(=O)O)C(=O)NC(C)C(=O)NC(CC(=O)O)C(=O)NCC(=O)NC(CO)C(=O)NC(C(C)CC(=O)O)C(=O)NC(CC(=O)c2ccccc2N)C(=O)OC1C (stereo not drawn) [Example 13B, Dapto-TCO-Glycine] |  |  | reduces MRSA infection in vivo in a knee joint | 0.15 (≈ 0.0795 mM) | 0.15 mg/mL and 0.14 mg/mL | 10.9 (≈ 5.77 mM) | 10.8 mg/mL and 10.9 mg/mL | 38.3 (≈ 20.3 mM) | 38.1 mg/mL and 38.3 mg/mL
